Columns and labels:
SGK3/SGKL = biological target: T1, SGK3/SGKL (Homo sapiens, UniProt Q96BR1); assay: biochemical; details: read-out: % enzyme activity, 1 μM; Run 1, Run 2
T1 sequence (Q96BR1 1-496): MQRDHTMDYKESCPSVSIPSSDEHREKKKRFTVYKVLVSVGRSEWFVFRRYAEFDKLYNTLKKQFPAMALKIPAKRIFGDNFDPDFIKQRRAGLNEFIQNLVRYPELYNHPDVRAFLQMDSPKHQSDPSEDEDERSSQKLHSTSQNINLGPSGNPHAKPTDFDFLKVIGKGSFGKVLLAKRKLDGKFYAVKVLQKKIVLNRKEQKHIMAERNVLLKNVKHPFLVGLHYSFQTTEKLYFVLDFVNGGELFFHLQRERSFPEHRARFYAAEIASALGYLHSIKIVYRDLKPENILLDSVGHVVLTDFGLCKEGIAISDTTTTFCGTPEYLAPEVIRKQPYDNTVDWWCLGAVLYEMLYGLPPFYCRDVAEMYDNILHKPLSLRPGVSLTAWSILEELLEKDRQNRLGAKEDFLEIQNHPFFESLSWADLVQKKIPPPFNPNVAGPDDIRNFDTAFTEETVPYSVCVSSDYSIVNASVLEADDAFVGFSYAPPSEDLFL

JAK1 = JAK1 (Homo sapiens, UniProt P23458); details: 1 μM; Run 1, Run 2
IKKa/CHUK = biological target: T2, IKKa/CHUK (Homo sapiens, UniProt O15111); details: 1 μM; Run 1, Run 2
T2 sequence (O15111 1-745): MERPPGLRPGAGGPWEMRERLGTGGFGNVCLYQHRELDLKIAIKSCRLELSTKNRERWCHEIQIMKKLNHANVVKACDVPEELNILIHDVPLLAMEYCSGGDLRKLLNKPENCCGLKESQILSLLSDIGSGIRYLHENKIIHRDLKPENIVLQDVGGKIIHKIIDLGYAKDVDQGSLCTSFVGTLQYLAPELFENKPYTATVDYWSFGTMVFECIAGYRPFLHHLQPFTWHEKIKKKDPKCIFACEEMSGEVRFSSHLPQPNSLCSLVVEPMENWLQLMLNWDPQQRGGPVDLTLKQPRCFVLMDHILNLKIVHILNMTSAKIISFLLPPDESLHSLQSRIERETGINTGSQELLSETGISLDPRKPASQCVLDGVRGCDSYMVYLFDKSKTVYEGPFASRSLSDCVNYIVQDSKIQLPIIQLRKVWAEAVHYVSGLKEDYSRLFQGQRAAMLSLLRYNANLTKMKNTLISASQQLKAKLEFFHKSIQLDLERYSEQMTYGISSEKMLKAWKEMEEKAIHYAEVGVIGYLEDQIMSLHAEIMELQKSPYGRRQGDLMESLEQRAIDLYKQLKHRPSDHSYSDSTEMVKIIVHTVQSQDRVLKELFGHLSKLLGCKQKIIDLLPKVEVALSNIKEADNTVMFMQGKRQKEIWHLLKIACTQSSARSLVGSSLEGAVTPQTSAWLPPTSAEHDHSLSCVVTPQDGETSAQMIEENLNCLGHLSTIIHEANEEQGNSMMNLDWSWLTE

AKT2 = AKT2 (Homo sapiens, UniProt P31751); details: 1 μM; Run 1, Run 2
MRCKa/CDC42BPA = MRCKa/CDC42BPA (Homo sapiens, UniProt Q5VT25); assay: biochemical; details: read-out: % enzyme activity, 1 μM; Run 1, Run 2
CSK = CSK (Homo sapiens, UniProt P41240); details: 1 μM; Run 1, Run 2
MEKK1 = MEKK1 (Homo sapiens, UniProt Q13233); assay: biochemical; details: read-out: % enzyme activity, 1 μM; Run 1, Run 2
PHKg2 = biological target: T3, PHKg2 (Homo sapiens, UniProt P15735); assay: biochemical; details: read-out: % enzyme activity, 1 μM; Run 1, Run 2
T3 sequence (P15735 1-406): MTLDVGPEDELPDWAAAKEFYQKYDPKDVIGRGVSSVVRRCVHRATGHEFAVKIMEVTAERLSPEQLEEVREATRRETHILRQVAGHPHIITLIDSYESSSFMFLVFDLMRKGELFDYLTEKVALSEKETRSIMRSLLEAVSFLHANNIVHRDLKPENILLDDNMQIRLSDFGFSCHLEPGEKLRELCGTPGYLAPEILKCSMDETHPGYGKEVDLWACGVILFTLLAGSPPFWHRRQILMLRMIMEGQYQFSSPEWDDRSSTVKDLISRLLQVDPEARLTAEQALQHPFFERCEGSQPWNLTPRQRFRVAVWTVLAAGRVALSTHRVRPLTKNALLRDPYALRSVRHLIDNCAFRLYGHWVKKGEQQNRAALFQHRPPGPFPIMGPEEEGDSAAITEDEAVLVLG

PKG1a = biological target: T4, PKG1a (Homo sapiens, UniProt Q13976); details: 1 μM; Run 1, Run 2
T4 sequence (Q13976 1-671): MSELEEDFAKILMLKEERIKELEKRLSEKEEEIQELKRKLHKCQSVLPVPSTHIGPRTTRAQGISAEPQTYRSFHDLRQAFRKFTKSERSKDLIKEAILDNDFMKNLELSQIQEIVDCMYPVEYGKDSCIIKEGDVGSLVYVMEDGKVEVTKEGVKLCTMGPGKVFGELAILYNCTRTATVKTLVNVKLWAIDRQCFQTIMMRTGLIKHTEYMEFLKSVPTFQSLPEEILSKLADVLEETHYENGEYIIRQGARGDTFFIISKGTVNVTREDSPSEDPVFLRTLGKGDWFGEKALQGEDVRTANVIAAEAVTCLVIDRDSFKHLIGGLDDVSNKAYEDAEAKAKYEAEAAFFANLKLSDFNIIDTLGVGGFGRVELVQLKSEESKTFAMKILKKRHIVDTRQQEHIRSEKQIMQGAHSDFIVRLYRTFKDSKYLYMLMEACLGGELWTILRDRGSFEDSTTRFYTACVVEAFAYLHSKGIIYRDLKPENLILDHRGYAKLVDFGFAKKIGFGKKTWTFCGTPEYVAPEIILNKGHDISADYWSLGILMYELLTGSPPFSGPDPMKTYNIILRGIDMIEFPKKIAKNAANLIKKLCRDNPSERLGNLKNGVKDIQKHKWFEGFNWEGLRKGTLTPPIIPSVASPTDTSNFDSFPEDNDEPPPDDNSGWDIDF

MAST3 [1] = biological target: T5, MAST3 (Homo sapiens, UniProt O60307); assay: biochemical; details: read-out: % enzyme activity, 1 μM; Run 1, Run 2
MAST3 [2] = biological target: T5, MAST3; details: 1 μM; Run 1, Run 2
PKN3/PRK3 = PKN3/PRK3 (Homo sapiens, UniProt Q6P5Z2); details: 1 μM; Run 1, Run 2
Chain of PKN3/PRK3 (Q6P5Z2 whole entry): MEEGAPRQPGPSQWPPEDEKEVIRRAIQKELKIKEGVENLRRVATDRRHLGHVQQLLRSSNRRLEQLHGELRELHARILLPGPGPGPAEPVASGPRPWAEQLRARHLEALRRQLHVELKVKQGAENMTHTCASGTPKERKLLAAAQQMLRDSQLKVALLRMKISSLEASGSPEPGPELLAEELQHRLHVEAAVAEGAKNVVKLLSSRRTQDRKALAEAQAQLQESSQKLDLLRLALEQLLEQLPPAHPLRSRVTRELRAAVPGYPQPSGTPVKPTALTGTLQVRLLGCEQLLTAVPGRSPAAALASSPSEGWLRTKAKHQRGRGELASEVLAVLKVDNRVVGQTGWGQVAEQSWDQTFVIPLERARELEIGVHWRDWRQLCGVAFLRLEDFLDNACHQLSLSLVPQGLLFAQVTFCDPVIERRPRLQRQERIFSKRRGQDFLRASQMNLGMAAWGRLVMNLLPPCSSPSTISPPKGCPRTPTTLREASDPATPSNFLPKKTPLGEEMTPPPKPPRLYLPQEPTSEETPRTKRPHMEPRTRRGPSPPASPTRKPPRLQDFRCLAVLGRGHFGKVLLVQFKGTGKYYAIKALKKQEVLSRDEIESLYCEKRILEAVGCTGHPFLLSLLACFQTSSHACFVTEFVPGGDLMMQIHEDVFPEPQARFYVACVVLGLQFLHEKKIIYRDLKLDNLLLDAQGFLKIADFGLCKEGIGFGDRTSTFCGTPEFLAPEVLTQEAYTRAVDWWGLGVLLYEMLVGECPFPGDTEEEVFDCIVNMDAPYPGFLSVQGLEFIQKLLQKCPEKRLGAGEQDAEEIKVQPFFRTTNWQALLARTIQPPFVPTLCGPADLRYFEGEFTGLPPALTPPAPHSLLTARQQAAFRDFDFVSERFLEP

T5 sequence (O60307 whole entry): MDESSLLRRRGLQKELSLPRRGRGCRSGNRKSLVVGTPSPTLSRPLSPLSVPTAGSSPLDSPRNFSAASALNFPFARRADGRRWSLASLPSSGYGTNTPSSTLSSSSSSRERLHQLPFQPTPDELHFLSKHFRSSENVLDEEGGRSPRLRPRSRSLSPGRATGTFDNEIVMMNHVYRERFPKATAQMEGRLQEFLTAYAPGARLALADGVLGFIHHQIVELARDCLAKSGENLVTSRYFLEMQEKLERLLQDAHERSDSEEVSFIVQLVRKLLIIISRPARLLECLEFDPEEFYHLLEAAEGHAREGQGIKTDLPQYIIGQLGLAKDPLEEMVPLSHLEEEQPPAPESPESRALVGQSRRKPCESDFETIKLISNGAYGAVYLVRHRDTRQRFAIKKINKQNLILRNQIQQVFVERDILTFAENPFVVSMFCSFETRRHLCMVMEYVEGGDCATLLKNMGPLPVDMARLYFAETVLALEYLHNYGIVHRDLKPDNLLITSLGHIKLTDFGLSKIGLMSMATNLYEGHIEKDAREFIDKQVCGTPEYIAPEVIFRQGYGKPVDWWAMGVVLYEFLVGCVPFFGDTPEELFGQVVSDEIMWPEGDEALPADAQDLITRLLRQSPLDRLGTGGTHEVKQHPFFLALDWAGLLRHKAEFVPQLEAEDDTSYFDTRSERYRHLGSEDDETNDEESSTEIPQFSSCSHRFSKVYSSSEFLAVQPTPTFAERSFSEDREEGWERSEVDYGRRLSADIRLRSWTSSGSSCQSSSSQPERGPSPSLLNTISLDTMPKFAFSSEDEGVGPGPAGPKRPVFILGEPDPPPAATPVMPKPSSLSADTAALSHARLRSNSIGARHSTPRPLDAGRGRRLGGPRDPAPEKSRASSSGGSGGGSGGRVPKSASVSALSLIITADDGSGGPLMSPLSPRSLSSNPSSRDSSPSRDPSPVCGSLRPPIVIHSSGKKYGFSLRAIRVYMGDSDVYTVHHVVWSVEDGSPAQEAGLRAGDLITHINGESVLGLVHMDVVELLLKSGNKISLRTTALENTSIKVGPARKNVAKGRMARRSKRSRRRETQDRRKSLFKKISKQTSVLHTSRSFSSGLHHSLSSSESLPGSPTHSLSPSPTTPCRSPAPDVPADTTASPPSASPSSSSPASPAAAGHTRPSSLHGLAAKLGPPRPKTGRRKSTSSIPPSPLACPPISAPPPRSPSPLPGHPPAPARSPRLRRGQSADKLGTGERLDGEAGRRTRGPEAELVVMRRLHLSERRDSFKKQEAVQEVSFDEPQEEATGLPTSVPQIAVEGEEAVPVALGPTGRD
Chain of JAK1 (P23458 whole entry): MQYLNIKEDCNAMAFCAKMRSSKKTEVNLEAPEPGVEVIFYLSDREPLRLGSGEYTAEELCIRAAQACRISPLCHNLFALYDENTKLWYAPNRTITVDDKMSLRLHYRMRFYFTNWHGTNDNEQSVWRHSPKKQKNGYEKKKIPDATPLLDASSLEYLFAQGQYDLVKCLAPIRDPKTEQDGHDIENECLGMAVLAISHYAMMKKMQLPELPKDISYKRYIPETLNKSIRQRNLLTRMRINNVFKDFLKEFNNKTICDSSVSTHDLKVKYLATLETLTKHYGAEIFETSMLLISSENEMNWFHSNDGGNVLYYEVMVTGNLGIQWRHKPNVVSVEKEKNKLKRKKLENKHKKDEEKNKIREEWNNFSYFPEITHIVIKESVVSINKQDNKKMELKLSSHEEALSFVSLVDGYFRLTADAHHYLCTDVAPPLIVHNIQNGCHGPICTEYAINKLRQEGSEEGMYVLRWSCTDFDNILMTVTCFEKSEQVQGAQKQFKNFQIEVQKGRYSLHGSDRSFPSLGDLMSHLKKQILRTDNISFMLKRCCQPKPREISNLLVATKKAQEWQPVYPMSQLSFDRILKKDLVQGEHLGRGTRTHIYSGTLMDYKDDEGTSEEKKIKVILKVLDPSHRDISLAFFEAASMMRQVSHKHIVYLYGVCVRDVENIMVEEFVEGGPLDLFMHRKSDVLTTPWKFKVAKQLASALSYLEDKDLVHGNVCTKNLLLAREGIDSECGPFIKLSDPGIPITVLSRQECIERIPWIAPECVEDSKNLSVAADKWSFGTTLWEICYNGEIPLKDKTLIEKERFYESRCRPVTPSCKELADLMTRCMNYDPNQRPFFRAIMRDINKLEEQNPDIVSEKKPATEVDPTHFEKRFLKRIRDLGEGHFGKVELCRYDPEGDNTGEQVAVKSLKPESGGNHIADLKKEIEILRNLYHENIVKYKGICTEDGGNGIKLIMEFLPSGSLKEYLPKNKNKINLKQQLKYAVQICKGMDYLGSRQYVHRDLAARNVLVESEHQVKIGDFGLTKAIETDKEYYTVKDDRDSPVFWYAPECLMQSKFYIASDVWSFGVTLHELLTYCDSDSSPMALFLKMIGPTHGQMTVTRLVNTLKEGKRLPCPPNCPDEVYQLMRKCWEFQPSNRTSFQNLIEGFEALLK
Chain of AKT2 (P31751 whole entry): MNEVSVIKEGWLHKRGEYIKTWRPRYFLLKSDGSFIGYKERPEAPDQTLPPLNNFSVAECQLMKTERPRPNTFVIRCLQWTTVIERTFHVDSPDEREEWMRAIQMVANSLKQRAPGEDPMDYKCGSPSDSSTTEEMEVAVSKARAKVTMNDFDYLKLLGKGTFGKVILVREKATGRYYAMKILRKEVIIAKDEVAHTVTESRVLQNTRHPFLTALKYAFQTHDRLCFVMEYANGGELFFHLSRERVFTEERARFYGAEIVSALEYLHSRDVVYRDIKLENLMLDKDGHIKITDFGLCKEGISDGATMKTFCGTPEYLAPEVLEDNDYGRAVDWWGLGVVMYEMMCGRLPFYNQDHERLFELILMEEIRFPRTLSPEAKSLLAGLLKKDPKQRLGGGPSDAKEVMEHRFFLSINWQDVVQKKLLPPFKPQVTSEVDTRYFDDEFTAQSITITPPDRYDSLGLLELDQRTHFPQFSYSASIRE
Chain of CSK (P41240 whole entry): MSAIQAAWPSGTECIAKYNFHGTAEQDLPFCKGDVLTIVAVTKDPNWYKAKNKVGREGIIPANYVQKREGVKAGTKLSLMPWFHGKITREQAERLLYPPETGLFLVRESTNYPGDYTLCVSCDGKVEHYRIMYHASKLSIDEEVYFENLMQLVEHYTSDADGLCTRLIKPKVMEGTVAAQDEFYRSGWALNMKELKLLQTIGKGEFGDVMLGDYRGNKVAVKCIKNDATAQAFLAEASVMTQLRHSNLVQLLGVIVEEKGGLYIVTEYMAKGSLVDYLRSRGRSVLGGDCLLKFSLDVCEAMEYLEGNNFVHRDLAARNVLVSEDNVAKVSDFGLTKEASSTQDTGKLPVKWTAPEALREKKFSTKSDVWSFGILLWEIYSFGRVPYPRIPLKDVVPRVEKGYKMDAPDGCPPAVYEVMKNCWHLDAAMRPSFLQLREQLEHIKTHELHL

Row | SMILES | remaining activity at 1 µM (SGK3/SGKL) | % enzyme activity (JAK1) | % enzyme activity (IKKa/CHUK) | % enzyme activity (AKT2) | remaining activity at 1 µM (MRCKa/CDC42BPA) | % enzyme activity (CSK) | remaining activity at 1 µM (MEKK1) | remaining activity at 1 µM (PHKg2) | % enzyme activity (PKG1a) | remaining activity at 1 µM (MAST3 [1]) | % enzyme activity (MAST3 [2]) | % enzyme activity (PKN3/PRK3)
1 | COc1cc(-c2cncc(-c3ccc(N4CCN(C)CC4)cc3)c2C)cc(F)c1C(N)=O [Compound 26a, 2-Fluoro-6-methoxy-4-(4-methyl-5-(4-(4-methylpiperazin-1-yl)phenyl)pyridin-3-yl)benzamide] | 103% | 99.53% | 82.74% | 91.70% | 103% | 99.36% | 94.3% | 94.9% | 97.81% | 94.7% | 93.52% | 93.55%
2 | COc1cc(-c2cncc(-c3ccc(N4C[C@@H](C)N(C)[C@@H](C)C4)cc3)c2C)cc(F)c1C(N)=O [Compound 26c, 2-Fluoro-6-methoxy-4-(4-methyl-5-(4-((3R,5S)-3,4,5-trimethylpiperazin-1-yl)phenyl)pyridin-3-yl)benzamide] | 94.8% | 99.07% | 85.96% | 92.08% | 105% | 102.04% | 97.7% | 96.7% | 101.45% | 95.5% | 95.17% | 96.44%
